Experimental data taken from patent US20220306647A1, “NOVEL INDOLE-2-CARBOXAMIDES ACTIVE AGAINST THE HEPATITUS B VIRUS (HBV)” (AICURIS GMBH & CO. KG, priority 2019, published 2022).
Read-outs that look alike come from different tables or passages of the source.

Tests used:
[1] = target: T1, HBV core protein (C-terminal truncated core protein, 149 amino acids of the N-terminal assembly domain, BODIPY-FL labelled) (UniProt P03146); assay: Biochemical capsid assembly assay (fluorescence quenching)
T1 construct: fused on or other part: A single cysteine added after residue 149, at position 150; It carries the BODIPY-FL maleimide label
T1 sequence (P03146 whole entry, the tested form may be a part): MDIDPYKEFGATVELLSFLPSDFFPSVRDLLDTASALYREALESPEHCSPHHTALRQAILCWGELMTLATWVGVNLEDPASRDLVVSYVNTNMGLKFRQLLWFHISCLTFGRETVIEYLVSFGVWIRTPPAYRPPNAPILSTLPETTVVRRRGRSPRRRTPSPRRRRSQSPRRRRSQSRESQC
In short: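 Fluorescence quenching of BODIPY-FL-labelled core dimers (1.0 to 2.0 μM) in 50 mM HEPES pH 7.5; compounds at 8 concentrations, 0.5 log-unit dilutions from top 100, 31.6 or 10 μM, 0.5% DMSO. Assembly started with NaCl to […]; fluorescence (ex 477/em 525 nm) read after 6 min. EC50 by non-linear regression.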

HBV (HepAD38 cells) = assay: HBV replication assay: determination of HBV DNA from the supernatants of HepAD38 cells; type: cell-based; details: Hepatitis B virus, 144 h, HBV DNA in HepAD38 supernatant at day 6, qPCR, read-out: Cell activity
Protocol: Determination of HBV DNA from the Supernatants of HepAD38 Cells
The anti-HBV activity was analysed in the stable transfected cell line HepAD38, which has been described to secrete high levels of HBV virion particles (Ladner et al., 1997). In brief, HepAD38 cells were cultured at 37° C. at 5% CO2 and 95% humidity in 200 μl maintenance medium, which was Dulbecco's modified Eagle's medium/Nutrient Mixture F-12 (Gibco, Karlsruhe), 10% fetal bovine serum (PAN Biotech Aidenbach) supplemented with 50 μg/ml penicillin/streptomycin (Gibco, Karlsruhe), 2 mM L-glutamine (PAN Biotech, Aidenbach), 400 μg/ml G418 (AppliChem, Darmstadt) and 0.3 μg/ml tetracycline. Cells were subcultured once a week in a 1:5 ratio, but were usually not passaged more than ten times. For the assay 60,000 cells were seeded in maintenance medium without any tetracycline into each well of a 96-well plate and treated with serial half-log dilutions of test compound. To minimize edge effects the outer 36 wells of the plate were not used but were filled with assay medium. On each assay plate six wells for the virus control (untreated HepAD38 cells) and six wells for the cell control (HepAD38 cells treated with 0.3 μg/ml tetracycline) were allocated, respectively. In addition, one plate set with reference inhibitors like BAY 41-4109, entecavir, and lamivudine instead of screening compounds were prepared in each experiment. In general, experiments were performed thrice in triplicates. At day 6 HBV DNA from 100 μl filtrated cell culture supernatant (AcroPrep Advance 96 Filter Plate, […] Supor membran, PALL GmbH, Dreieich) was automatically purified on the MagNa Pure LC instrument using the MagNA Pure 96 DNA and Viral NA Small Volume Kit (Roche Diagnostics, Mannheim) according to the instructions of the manufacturer. EC50 values were calculated from relative copy numbers of HBV DNA In brief, 5 μl of the 100 μl eluate containing HBV DNA were subjected to PCR LC480 Probes Master Kit (Roche) together with 1 μM antisense primer […], 0.5 μM sense primer […], 0.3 μM hybprobes […]-FL and LC640-[…]-PH (TIBMolBiol, Berlin) to a final volume of 12.5 μl. The PCR was performed on the Light Cycler 480 real time system (Roche Diagnostics, Mannheim) using the following protocol: Pre-incubation for 1 min at 95° C., amplification: 40 cycles×(10 sec at 95° C., 50 sec at 60° C., 1 sec at 70° C.), cooling for 10 sec at 40° C. Viral load was quantitated against known standards using HBV plasmid DNA of pCH-9/3091 (Nassal et al., 1990, Cell 63: 1357-1363) and the LightCycler 480 SW 1.5 software (Roche Diagnostics, Mannheim) and EC50 values were calculated using non-linear regression with GraphPad Prism 6 (GraphPad Software Inc., La Jolla, USA).

[2] = assembly started with NaCl, fluorescence read after 6 min, read-out: Assembly activity
[3] = read-out: Assembly activity, assembly started with NaCl, fluorescence read after 6 min

Row | Structure (SMILES) | IC50 [1, 2] [µM] | EC50 (HBV (HepAD38 cells)) [µM] | IC50 [1, 3] [µM]
1 | CN1C(=O)c2c3c(nn2CC12CC2)CCN(C(=O)c1cc2c(Cl)cccc2[nH]1)C3 [Example 17, 12′-(4-chloro-1H-indole-2-carbonyl)-4′-methyl-4′,7′,8′,12′-tetraazaspiro[cyclopropane-1,5′-tricyclo[7.4.0.0^2′7]tridecane]-1′,8′-dien-3′-one] | < 5 | < 1 | 
2 | Cc1c(F)ccc2[nH]c(C(=O)N3CCc4nn5c(c4C3)C(=O)N(C)C3(CC3)C5)cc12 [Example 18, 12′-(5-fluoro-4-methyl-1H-indole-2-carbonyl)-4′-methyl-4′,7′,8′,12′-tetraazaspiro[cyclopropane-1,5′-tricyclo[7.4.0.0^2′7]tridecane]-1′,8′-dien-3′-one] | < 5 | < 1 | 
3 | CN(CCO)C(=O)c1noc2c1CN(C(=O)c1cc3c(Cl)cccc3[nH]1)CC2 [Example 21, 5-(4-chloro-1H-indole-2-carbonyl)-N-(2-hydroxyethyl)-N-methyl-4H,5H,6H,7H-[1,2]oxazolo[4,5-c]pyridine-3-carboxamide] | < 5 | < 1 | 
4 | CN(CCO)C(=O)c1noc2c1CN(C(=O)c1cc3ccccc3[nH]1)CC2 [Example 22, N-(2-hydroxyethyl)-5-(1H-indole-2-carbonyl)-N-methyl-4H,5H,6H,7H-[1,2]oxazolo[4,5-c]pyridine-3-carboxamide] | < 5 | < 1 | 
5 | CN(CCO)C(=O)c1noc2c1CN(C(=O)c1cc3c(F)cc(F)cc3[nH]1)CC2 [Example 23, 5-(4,6-difluoro-1H-indole-2-carbonyl)-N-(2-hydroxyethyl)-N-methyl-4H,5H,6H,7H-[1,2]oxazolo[4,5-c]pyridine-3-carboxamide] | < 5 | < 1 | 
6 | CN(Cc1ccccc1C(=O)O)C(=O)c1[nH]nc2c1CN(C(=O)c1cc3ccccc3[nH]1)CC2 [Example 24, 2-({1-[5-(1H-indole-2-carbonyl)-2H,4H,5H,6H,7H-pyrazolo[4,3-c]pyridin-3-yl]-N-methylformamido}methyl)benzoic acid] | < 5 | 1 to 10 | 
7 | CN(Cc1ccccn1)C(=O)c1noc2c1CN(C(=O)c1cc3ccccc3[nH]1)CC2 [Example 26, 5-(1H-indole-2-carbonyl)-N-methyl-N-[(pyridin-2-yl)methyl]-4H,5H,6H,7H-[1,2]oxazolo[4,5-c]pyridine-3-carboxamide] | < 5 | 1 to 10 | 
8 | CN(C(=O)c1cnn2c1CN(C(=O)c1cc3ccccc3[nH]1)CC2)C1(c2ccccc2C(=O)O)CC1 [Example 30, 2-{1-[N-methyl-5-(1H-indole-2-carbonyl)-4H,5H,6H,7H-pyrazolo[1,5-a]pyrazine-3-amido]cyclopropyl}benzoic acid] | < 5 | 1 to 10 | 
9 | CN(C(=O)c1cnn2c1CN(C(=O)c1cc3ccccc3[nH]1)CC2)C1(c2ccc(C(=O)O)cn2)CC1 [Example 31, 6-{1-[N-methyl-5-(1H-indole-2-carbonyl)-4H,5H,6H,7H-pyrazolo[1,5-a]pyrazine-3-amido]cyclopropyl}pyridine-3-carboxylic acid] | < 5 | < 100 | 
10 | CN(C(=O)c1cnn2c1CN(C(=O)c1cc3cc(F)c(Cl)cc3[nH]1)CC2)C1(c2cccc(C(=O)O)c2)CC1 [Example 33, 3-{1-[N-methyl-5-(6-chloro-5-fluoro-1H-indole-2-carbonyl)-4H,5H,6H,7H-pyrazolo[1,5-a]pyrazine-3-amido]cyclopropyl}benzoic acid] | < 5 | < 1 | 
11 | CN(C(=O)c1cnn2c1CN(C(=O)c1cc3ccccc3[nH]1)CC2)C1(Cc2ccc(C(=O)O)cc2)CC1 [Example 34, 4-({1-[N-methyl-5-(1H-indole-2-carbonyl)-4H,5H,6H,7H-pyrazolo[1,5-a]pyrazine-3-amido]cyclopropyl}methyl)benzoic acid] | < 5 | 1 to 10 | 
12 | Cc1c(F)ccc2[nH]c(C(=O)N3CCn4ncc(C(=O)N(C)C5(c6cccc(C(=O)O)c6)CC5)c4C3)cc12 [Example 35, 3-{1-[N-methyl-5-(5-fluoro-4-methyl-1H-indole-2-carbonyl)-4H,5H,6H,7H-pyrazolo[1,5-a]pyrazine-3-amido]cyclopropyl}benzoic acid] |  | < 1 | < 5
13 | CN1C(=O)c2c3c(nn2CC12CC2)CCN(C(=O)c1cc2c(F)cccc2[nH]1)C3 [Example 37, 12′-(4-fluoro-1H-indole-2-carbonyl)-4′-methyl-4′,7′,8′,12′-tetraazaspiro[cyclopropane-1,5′-tricyclo[7.4.0.0^2, □]tridecane]-1′,8′-dien-3′-one] |  | < 1 | < 5
14 | COCC1(N(C)C(=O)c2onc3c2CN(C(=O)c2cc4ccccc4[nH]2)CC3)CC1 [Example 38, 5-(1H-indole-2-carbonyl)-N-[1-(methoxymethyl)cyclopropyl]-N-methyl-4H,5H,6H,7H-[1,2]oxazolo[4,3-c]pyridine-3-carboxamide] | < 5 | < 1 | 
15 | CN(C(=O)c1onc2c1CN(C(=O)c1cc3ccccc3[nH]1)CC2)C1CC1 [Example 39, N-cyclopropyl-5-(1H-indole-2-carbonyl)-N-methyl-4,5,6,7-tetrahydroisoxazolo[4,3-c]pyridine-3-carboxamide] |  | < 1 | < 5
16 | C[C@@H](NC(=O)c1onc2c1CN(C(=O)c1cc3ccccc3[nH]1)CC2)C(F)(F)F [Example 40, 5-(1H-indole-2-carbonyl)-N-[(2R)-1,1,1-trifluoropropan-2-yl]-4H,5H,6H,7H-[1,2]oxazolo[4,3-c]pyridine-3-carboxamide] | < 5 | < 1 | 
17 | CC1Cn2cnc(C(=O)N(C)C3(c4cccc(C(=O)O)c4)CC3)c2CN1C(=O)c1cc2ccccc2[nH]1 (centres unmarked) [Example 41, 3-{1-[N-methyl-7-(1H-indole-2-carbonyl)-6-methyl-5H,6H,7H,8H-imidazo[1,5-a]pyrazine-1-amido]cyclopropyl}benzoic acid] |  | 1 to 10 | < 5
18 | CN(C(=O)c1cnn2c1CN(C(=O)c1cc3c(F)c(F)ccc3[nH]1)CC2)C1(c2cccc(C(=O)O)c2)CC1 [Example 42, 3-{1-[N-methyl-5-(4,5-difluoro-1H-indole-2-carbonyl)-4H,5H,6H,7H-pyrazolo[1,5-a]pyrazine-3-amido]cyclopropyl}benzoic acid] | < 5 | 1 to 10 | 
19 | O=C1NC2(CC2)Cn2nc3c(c21)CN(C(=O)c1cc2ccccc2[nH]1)CC3 [Example 43, 12′-(1H-indole-2-carbonyl)-4′,7′,8′,12′-tetraazaspiro[cyclopropane-1,5′-tricyclo[7.4.0.0^2, D]tridecane]-1′,8′-dien-3′-one] |  | 1 to 10 | < 5
20 | CN(C(=O)c1cnn2c1CN(C(=O)c1cc3c(Cl)cccc3[nH]1)CC2)C1(c2ncc(C(=O)O)cn2)CC1 [Example 45, 2-{1-[N-methyl-5-(4-chloro-1H-indole-2-carbonyl)-4H,5H,6H,7H-pyrazolo[1,5-a]pyrazine-3-amido]cyclopropyl}pyrimidine-5-carboxylic acid] | < 5 | 1 to 10 | 
21 | C[C@@H](NC(=O)c1noc2c1CN(C(=O)c1cc3ccccc3[nH]1)CC2)C(F)(F)F [Example 46, 5-(1H-indole-2-carbonyl)-N-[(2R)-1,1,1-trifluoropropan-2-yl]-4H,5H,6H,7H-[1,2]oxazolo[4,5-c]pyridine-3-carboxamide] |  | < 1 | < 5
22 | CN(C(=O)c1cnn2c1CN(C(=O)c1cc3ccccc3[nH]1)CC2)C1(COc2ccc(C(=O)O)cc2)CC1 [Example 47, 4-({1-[N-methyl-5-(1H-indole-2-carbonyl)-4H,5H,6H,7H-pyrazolo[1,5-a]pyrazine-3-amido]cyclopropyl}methoxy)benzoic acid] | < 5 | < 1 | 
